{"source": "ChEMBL document CHEMBL1833788", "about": "“Selective water-soluble gelatinase inhibitor prodrugs” (J Med Chem, 2011)", "format_in_all_cases": "ADME, organism-based", "key": {"Mus musculus [1]": {"tested_on": "Mus musculus", "test": "Prodrug conversion in C57B1/6 mouse assessed as 4-[4-((Thiiran-2-yl)methylsulphonyl)phenoxy]benzamine level in plasma at […], iv administered as single bolus dose after 62 to 66 mins by reversed-phase HPLC/UV analysis", "details": "in vivo, read-out: Drug metabolism; call rule not given here"}, "Mus musculus [2]": {"tested_on": "Mus musculus", "test": "Prodrug conversion in C57B1/6 mouse plasma assessed as parent compound level at […], iv administered as single bolus dose after 42 mins by reversed-phase LC/MS analysis", "details": "in vivo, 0.7 h"}, "Mus musculus [3]": {"tested_on": "Mus musculus", "test": "Prodrug conversion in C57B1/6 mouse plasma assessed as parent compound level at […], iv administered as single bolus dose after 4 to 5 mins by reversed-phase LC/MS analysis", "details": "in vivo, read-out: Drug metabolism"}, "Mus musculus [4]": {"tested_on": "Mus musculus", "test": "Terminal half life in C57B1/6 mouse plasma assessed as parent compound level at […], iv administered as single bolus dose", "details": "in vivo"}, "Mus musculus [5]": {"tested_on": "Mus musculus", "test": "Prodrug conversion in C57B1/6 mouse assessed as 4-[4-((Thiiran-2-yl)methylsulphonyl)phenoxy]benzamine level in plasma at […], iv administered as single bolus dose after 42 mins by reversed-phase HPLC/UV analysis", "details": "in vivo, 0.7 h, read-out: Drug metabolism"}, "Mus musculus [6]": {"tested_on": "Mus musculus", "test": "AUC (0 to last) in C57B1/6 mouse plasma assessed as 4-[4-((Thiiran-2-yl)methylsulphonyl)phenoxy]benzamine level at […], iv administered as single bolus dose", "details": "in vivo"}, "Mus musculus [7]": {"tested_on": "Mus musculus", "test": "AUC (0 to infinity) in C57B1/6 mouse plasma assessed as N-(4-(4-(thiiran-2-ylmethylsulfonyl)phenoxy)phenyl)acetamide level at […], iv administered as single bolus dose", "details": "in vivo, BLD = below limit of detection"}, "Mus musculus [8]": {"tested_on": "Mus musculus", "test": "Prodrug conversion in C57B1/6 mouse assessed as 4-[4-((Thiiran-2-yl)methylsulphonyl)phenoxy]benzamine level in plasma at […], iv administered as single bolus dose after 22 mins by reversed-phase HPLC/UV analysis", "details": "in vivo"}, "Mus musculus [9]": {"tested_on": "Mus musculus", "test": "Prodrug conversion in C57B1/6 mouse assessed as N-(4-(4-((Thiiran-2-ylmethyl)sulfonyl)phenoxy)phenyl) hydroxylamine level in plasma at […], iv administered as single dose by reversed-phase LC/MS analysis", "details": "in vivo"}, "Mus musculus [10]": {"tested_on": "Mus musculus", "test": "Prodrug conversion in C57B1/6 mouse plasma assessed as parent compound level at […], iv administered as single bolus dose after 2 to 3 mins by reversed-phase LC/MS analysis", "details": "in vivo, read-out: Drug metabolism"}}}
{"molecule": "Cl.N=C(N)NCCC[C@H](N)C(=O)Nc1ccc(Oc2ccc(S(=O)(=O)CC3CS3)cc2)cc1", "note": "(stereo not given in full)", "values": [{"measurement": "concentration", "setting": "Mus musculus [1]", "value": 0.0908, "unit": "µM"}, {"measurement": "Drug metabolism", "setting": "Mus musculus [2]", "value": 0.0872, "unit": "µM"}, {"measurement": "concentration", "setting": "Mus musculus [3]", "value": 7.32, "unit": "µM"}, {"measurement": "beta t1/2", "setting": "Mus musculus [4]", "value": 4.33, "unit": "h"}, {"measurement": "concentration", "setting": "Mus musculus [5]", "value": 0.207, "unit": "µM"}, {"measurement": "AUClast", "setting": "Mus musculus [6]", "value": 137, "unit": "µM·min"}, {"measurement": "AUC", "setting": "Mus musculus [7]", "value": "BLD"}, {"measurement": "Drug metabolism", "setting": "Mus musculus [8]", "value": 0.787, "unit": "µM"}, {"measurement": "Drug metabolism", "setting": "Mus musculus [9]", "value": "Not Active"}, {"measurement": "concentration", "setting": "Mus musculus [10]", "value": 35.1, "unit": "µM"}]}
